Data from ChEMBL document CHEMBL1201862, “PubChem BioAssay data set” (2004).
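A five-concentration, 48-hour dose response in 96-well plates underlies each endpoint, interpolated linearly between surrounding concentrations. Here, GI50 denotes the concentration required for 50% inhibition of growth.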 Active and inactive are the calls of the source. Rule as the data show it: active = GI50 up to about 1.1 µM and inactive = higher. *1 amine or outer side, *2 acyl side, *3 side chain or, on linkers, in order; H or OH if unused. Where a SMILES comes first, the peptide text is derived from it. Bridges are numbered along the chain shown (N, C = ends). [ ]: non-standard residue; d: D form. The star is where a group is joined. X36 = O=C(C(CCCCNO[*:3])N[*:1])[*:2]; Fmoc = O=C(OCC1c2ccccc2-c2ccccc21)*

Key:
Experiment in all cases: growth of human tumour cells (NCI), 48 h
[1] = tested on: MCF7
[2] = tested on: 786-0
[3] = tested on: UACC-257
[4] = tested on: M14
[5] = tested on: RPMI-8226
[6] = tested on: PC-3
[7] = tested on: SK-OV-3
[8] = tested on: NCI-H460
[9] = tested on: HCT-15
[10] = tested on: SK-MEL-5
[11] = tested on: SR
[12] = tested on: RXF 393
[13] = tested on: SF-539
[14] = tested on: K562
[15] = tested on: T47D
[16] = tested on: UO-31
[17] = tested on: A549
[18] = tested on: HT-29
[19] = tested on: SF-295

SMILES | GI50 [1] | GI50 [2] | GI50 [3] | GI50 [4] | GI50 [5] | GI50 [6] | GI50 [7] | GI50 [8] | GI50 [9] | GI50 [10] | GI50 [11] | GI50 [12] | GI50 [13] | GI50 [14] | GI50 [15] | GI50 [16] | GI50 [17] | GI50 [18] | GI50 [19]
Cc1ccc(/N=C2/C(c3ccccc3)=C(SC3=C(c4ccccc4)/C(=N/c4ccc(C)cc4)c4ccccc43)c3ccccc32)cc1 | 27.1 µM (inactive) | 10.4 µM (inactive) | 23.4 µM (inactive) | 59.8 µM (inactive) | 84.7 µM (inactive) | 55 µM (inactive) | 15 µM (inactive) | 8.91 µM (inactive) | 17.7 µM | 19.4 µM (inactive) | > 100 µM (inactive) | 12.4 µM (inactive) | 6.21 µM (inactive) | 32.4 µM (inactive) | 33.3 µM (inactive) | 15.6 µM (inactive) | 32.9 µM (inactive) | 24.6 µM (inactive) | 12.5 µM (inactive)
O=C1CS(=O)(=O)C(c2cccc(Oc3ccccc3)c2)N1c1cccc(Cl)c1 (stereo not given) | 14.8 µM (inactive) | 19.8 µM (inactive) | 17.1 µM (inactive) | 26.7 µM (inactive) |  | 20.6 µM (inactive) | 40.6 µM (inactive) | 18.1 µM (inactive) | 22.1 µM | 15.7 µM (inactive) | 12.1 µM (inactive) | 23.3 µM (inactive) | 18 µM (inactive) | 13.1 µM (inactive) | 16.9 µM (inactive) | 37.1 µM (inactive) | 37.3 µM (inactive) | 28.6 µM (inactive) | 33.4 µM (inactive)
Cc1cccc(Nc2cc(Cl)nc(SCC(=O)O)n2)c1C [PIRINIXIC ACID] | > 100 µM (inactive) | > 100 µM (inactive) | > 100 µM (inactive) | > 100 µM (inactive) | 97.7 µM (inactive) | > 100 µM (inactive) | > 100 µM (inactive) | > 100 µM (inactive) | > 100 µM | > 100 µM (inactive) | > 100 µM (inactive) | > 100 µM (inactive) | > 100 µM (inactive) | 87.5 µM (inactive) | > 100 µM (inactive) |  | > 100 µM (inactive) | > 100 µM (inactive) | > 100 µM (inactive)
COc1ccc(/C=C/C(=O)N[C@@H]2C(=O)N3[C@@H]2SC(C)(C)[C@@H]3C(=O)O)cc1OC | > 100 µM (inactive) | > 100 µM (inactive) | > 100 µM (inactive) | > 100 µM (inactive) | > 100 µM (inactive) | > 100 µM (inactive) | > 100 µM (inactive) | > 100 µM (inactive) | > 100 µM | > 100 µM (inactive) | > 100 µM (inactive) | > 100 µM (inactive) | > 100 µM (inactive) | > 100 µM (inactive) | > 100 µM (inactive) | > 100 µM (inactive) | > 100 µM (inactive) | > 100 µM (inactive) | > 100 µM (inactive)
NC(=O)CNC(=O)C1CCCN1C(=O)C1CCCCNOC(=O)CCC(NC(=O)OCC2c3ccccc3-c3ccccc32)C(=O)NC(Cc2c[nH]c3ccccc23)C(=O)N1 (stereo not given) (Fmoc-EW[X36]PG-NH2; ester 1-3; configuration not given here) | 47.9 µM (inactive) | > 100 µM (inactive) | > 100 µM (inactive) | 54.3 µM (inactive) | > 100 µM (inactive) | > 100 µM (inactive) | 63.4 µM (inactive) | > 100 µM (inactive) | > 100 µM | > 100 µM (inactive) | > 100 µM (inactive) | > 100 µM (inactive) | > 100 µM (inactive) | > 100 µM (inactive) | > 100 µM (inactive) | 24.9 µM (inactive) | > 100 µM (inactive) | > 100 µM (inactive) | > 100 µM (inactive)
Cc1cc2c(nn1)-c1ccccc1C2=O | > 10 µM (inactive) | > 10 µM (inactive) |  | > 10 µM (inactive) | > 10 µM (inactive) | > 10 µM (inactive) | > 10 µM (inactive) | > 10 µM (inactive) | > 10 µM | > 10 µM (inactive) | > 10 µM (inactive) | > 10 µM (inactive) | > 10 µM (inactive) | > 10 µM (inactive) | > 10 µM (inactive) | > 10 µM (inactive) | > 10 µM (inactive) | > 10 µM (inactive) | > 10 µM (inactive)
[O-][S+](c1ccccc1)c1ccc(/N=N/O)nc1 (stereo not given) | > 100 µM (inactive) | > 100 µM (inactive) | > 100 µM (inactive) | > 100 µM (inactive) |  | 78.5 µM (inactive) | > 100 µM (inactive) | > 100 µM (inactive) | > 100 µM | > 100 µM (inactive) | > 100 µM (inactive) | 0.213 µM (active) | > 100 µM (inactive) | > 100 µM (inactive) | 82.6 µM (inactive) | > 100 µM (inactive) | > 100 µM (inactive) | > 100 µM (inactive) | > 100 µM (inactive)
COc1ccc(OC)c2c1-c1nnnn1CCC2(C)C | > 100 µM (inactive) | > 100 µM (inactive) | > 100 µM (inactive) | > 100 µM (inactive) | > 100 µM (inactive) | > 100 µM (inactive) | > 100 µM (inactive) | > 100 µM (inactive) | > 100 µM |  | > 100 µM (inactive) | > 100 µM (inactive) | > 100 µM (inactive) | > 100 µM (inactive) | > 100 µM (inactive) | > 100 µM (inactive) |  | > 100 µM (inactive) | > 100 µM (inactive)
O=C(NC1(C(=O)O)CC1c1ccccc1)c1ccccc1 (stereo not given) | > 100 µM (inactive) | > 100 µM (inactive) | > 100 µM (inactive) | > 100 µM (inactive) | > 100 µM (inactive) | > 100 µM (inactive) | > 100 µM (inactive) | > 100 µM (inactive) | > 100 µM |  | > 100 µM (inactive) | > 100 µM (inactive) | > 100 µM (inactive) | > 100 µM (inactive) | > 100 µM (inactive) | > 100 µM (inactive) | > 100 µM (inactive) | > 100 µM (inactive) | > 100 µM (inactive)
CN(C)CCSS(=O)(=O)O | > 100 µM (inactive) | > 100 µM (inactive) |  | > 100 µM (inactive) | > 100 µM (inactive) | > 100 µM (inactive) | 29.4 µM (inactive) | 16 µM (inactive) | > 100 µM | > 100 µM (inactive) | > 100 µM (inactive) | > 100 µM (inactive) | > 100 µM (inactive) | > 100 µM (inactive) | > 100 µM (inactive) | > 100 µM (inactive) | > 100 µM (inactive) | > 100 µM (inactive) | 13.3 µM (inactive)
CCC1=NC(N/N=C/c2ccco2)=N/C1=C\c1ccccc1O | 17.9 µM (inactive) | 39.7 µM (inactive) | 35.2 µM (inactive) | 35.2 µM (inactive) | 31.9 µM (inactive) | 31.2 µM (inactive) | 47 µM (inactive) | 14.9 µM (inactive) | 12.6 µM | 27.2 µM (inactive) | 48.4 µM (inactive) | 82.4 µM (inactive) |  | 56.5 µM (inactive) | 48.9 µM (inactive) | 11.6 µM (inactive) | 41.1 µM (inactive) | 36 µM (inactive) | 44.2 µM (inactive)
